Results from ChEMBL document CHEMBL1201862, “PubChem BioAssay data set” (2004).
Active and inactive are the calls of the source.

How the values were obtained:
Interleukin-8 [1] = target: T1, Interleukin-8 (Homo sapiens, UniProt P10145); assay: Dose Response confirmation of uHTS small molecule hits for cystic fibrosis induced NFkb Inhibitors in a PAF-induced IL8 counterscreen.; type: functional; conditions: read-out: IC50_Mean
T1 sequence (P10145 whole entry): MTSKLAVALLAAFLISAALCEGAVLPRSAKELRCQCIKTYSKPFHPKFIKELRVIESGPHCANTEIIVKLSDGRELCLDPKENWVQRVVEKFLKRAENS

Interleukin-8 [2] = target: T1, Interleukin-8; assay: Dose Response confirmation of uHTS small molecule hits for cystic fibrosis induced NFkb Inhibitors in a TNFa-induced IL8 counterscreen.; type: functional; conditions: read-out: IC50_Mean
[3] = alpha-synuclein stem-loop luciferase translation blockers – H4 neuroglioma cells, luminescence, confirmation (AID 1988); type: functional, cell-based
CHO = CHO cell viability loss, potency – luminescence, cytotoxicity control for TLR9-MyD88 binding inhibitor project, dose response (AID 588339); type: functional, cell-based, hamster; conditions: Cricetulus griseus;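 note: CHO cells stably coexpressing TLR9 and MyD88 fusions from primary screen; compound exposure lasted 48 hours before viability readout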
Beta Lactamase = Beta Lactamase (Pseudomonas aeruginosa, UniProt Q932Y6); assay: BLA reporter interference, concentration series – BLA reporter cells, FRET fluorescence, artefact control for TLR9-MyD88 binding inhibitor project, dose response (AID 588341); type: cell-based;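 note: cell based assay in CHO-K1 cells stably expressing beta-lactamase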
Protein RecA = target: T2, Protein RecA (Mycobacterium tuberculosis, UniProt P9WHJ3); assay: Fluorescence Cell-Free Homogeneous Dose Retest to Identify Inhibitors of RecA-Intein Splicing Activity. [Related pubchem assays (depositor defined):AID2097, AID2223, AID489010, AID492950]; type: functional
T2 sequence (P9WHJ3 whole entry): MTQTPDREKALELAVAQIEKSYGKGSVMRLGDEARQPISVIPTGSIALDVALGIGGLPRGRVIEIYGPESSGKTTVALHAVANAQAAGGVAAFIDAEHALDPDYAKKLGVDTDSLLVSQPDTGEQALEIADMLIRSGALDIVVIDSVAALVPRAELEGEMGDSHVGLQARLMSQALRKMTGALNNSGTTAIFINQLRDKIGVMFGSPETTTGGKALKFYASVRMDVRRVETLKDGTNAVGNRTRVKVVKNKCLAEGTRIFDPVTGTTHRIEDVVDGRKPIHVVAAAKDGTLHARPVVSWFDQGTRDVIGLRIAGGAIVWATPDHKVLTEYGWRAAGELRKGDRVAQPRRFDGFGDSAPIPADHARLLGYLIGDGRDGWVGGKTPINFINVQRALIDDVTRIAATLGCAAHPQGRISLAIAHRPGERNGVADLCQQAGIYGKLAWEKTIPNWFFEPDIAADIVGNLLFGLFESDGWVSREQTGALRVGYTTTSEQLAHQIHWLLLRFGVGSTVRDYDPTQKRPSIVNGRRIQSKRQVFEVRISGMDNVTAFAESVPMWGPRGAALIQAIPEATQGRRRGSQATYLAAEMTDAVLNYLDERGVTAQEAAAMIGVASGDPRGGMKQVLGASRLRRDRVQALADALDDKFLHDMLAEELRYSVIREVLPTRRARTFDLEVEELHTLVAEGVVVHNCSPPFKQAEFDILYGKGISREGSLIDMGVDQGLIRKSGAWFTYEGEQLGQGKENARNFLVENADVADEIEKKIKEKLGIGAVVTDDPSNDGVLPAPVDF

[4] = Luminescence Cell-Based Dose Response HTS to Identify Inhibitors of 5'UTR Stem-Loop Driven Prion Protein mRNA Translation in H4 Neuroglioblastoma Cells. [Related pubchem assays: 1827 (Project Summary), 1813 (Primary HTS)]; type: functional
[5] = NIH3T3 cell viability loss – ATP luminescence, mouse fibroblasts, counter-screen, dose response (AID 2010); type: functional, cell-based;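 note: cells exposed to compound for about 90 hours before reading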
Fatty acid synthase [6] = target: T3, Fatty acid synthase (Homo sapiens, UniProt P49327); assay: inhibition of human FAS-TE enzyme activity – biochemical, kinetic fluorescence intensity, dose response (AID 624326); type: functional;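 note: rate of fluorescence rise from hydrolysis of a fluorogenic O-methyl fluorescein ester substrate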
[7] = target: T4, Replicative DNA helicase DnaB (Mycobacterium tuberculosis, UniProt P9WMR3); assay: DnaB intein splicing inhibitors, dose response, biochemical, cell-free fluorescence (AID 449749); type: functional
T4 sequence (P9WMR3 whole entry): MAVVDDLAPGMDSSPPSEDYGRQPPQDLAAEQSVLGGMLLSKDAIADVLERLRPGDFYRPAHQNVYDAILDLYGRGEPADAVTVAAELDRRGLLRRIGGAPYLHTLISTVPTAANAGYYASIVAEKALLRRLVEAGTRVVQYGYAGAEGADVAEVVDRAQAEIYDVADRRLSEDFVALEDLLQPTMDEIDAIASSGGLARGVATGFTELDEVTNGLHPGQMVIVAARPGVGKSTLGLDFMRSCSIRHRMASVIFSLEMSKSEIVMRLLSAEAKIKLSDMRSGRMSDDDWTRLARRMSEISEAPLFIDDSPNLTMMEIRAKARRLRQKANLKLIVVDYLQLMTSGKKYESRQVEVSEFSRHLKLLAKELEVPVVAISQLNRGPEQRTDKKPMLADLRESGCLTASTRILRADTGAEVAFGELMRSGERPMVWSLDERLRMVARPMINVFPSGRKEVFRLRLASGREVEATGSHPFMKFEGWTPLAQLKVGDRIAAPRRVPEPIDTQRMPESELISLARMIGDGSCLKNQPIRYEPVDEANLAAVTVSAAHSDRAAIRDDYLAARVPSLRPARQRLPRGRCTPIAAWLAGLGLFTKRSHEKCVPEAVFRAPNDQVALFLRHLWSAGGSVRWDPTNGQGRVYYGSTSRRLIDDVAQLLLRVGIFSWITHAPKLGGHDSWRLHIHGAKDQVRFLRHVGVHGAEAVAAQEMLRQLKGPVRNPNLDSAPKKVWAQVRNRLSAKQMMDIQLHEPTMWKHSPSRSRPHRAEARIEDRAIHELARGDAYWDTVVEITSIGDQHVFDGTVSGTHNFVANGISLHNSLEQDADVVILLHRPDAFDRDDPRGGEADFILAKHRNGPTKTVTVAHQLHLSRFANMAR

[8] = Trypanosoma cruzi growth suppression in host cells – NIH3T3 host cells, beta-gal luminescence, confirmation (AID 2044); type: functional, cell-based;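 note: intracellular parasites grown in NIH/3T3 mouse fibroblasts as host cells; luminescent beta-galactosidase reporter signal from transgenic T. cruzi replicating inside host cells; inhibitors lower the luminescence signal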
Fatty acid synthase [9] = target: T3, Fatty acid synthase; assay: inhibition of human FAS-TE enzyme activity – biochemical, endpoint fluorescence intensity, uHTS hits, dose response (AID 624327); type: functional;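 note: fluorescence from hydrolysis of an O-methyl fluorescein acyl ester substrate by the enzyme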
[10] = luciferase reporter signal suppression in cells – H4 neuroglioma cells, luminescence, dose response (AID 1990); type: functional, cell-based
HeLa = assay: Cytotoxicity counterscreen assay for transcriptional activators of heat shock protein 70 (Hsp70). [Related pubchem assays: 1203, 1252 ]; type: functional; conditions: Homo sapiens;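 note: cells exposed to compound for 16 hours before readout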
Activated CDC42 kinase 1 = Activated CDC42 kinase 1 (Homo sapiens, UniProt Q07912); assay: Navigating the Kinome. Panel member name: ACK1; type: functional
[11] = target: T5, cAMP-dependent protein kinase catalytic subunit PRKX (Homo sapiens, UniProt P51817); type: functional
T5 sequence (P51817 whole entry): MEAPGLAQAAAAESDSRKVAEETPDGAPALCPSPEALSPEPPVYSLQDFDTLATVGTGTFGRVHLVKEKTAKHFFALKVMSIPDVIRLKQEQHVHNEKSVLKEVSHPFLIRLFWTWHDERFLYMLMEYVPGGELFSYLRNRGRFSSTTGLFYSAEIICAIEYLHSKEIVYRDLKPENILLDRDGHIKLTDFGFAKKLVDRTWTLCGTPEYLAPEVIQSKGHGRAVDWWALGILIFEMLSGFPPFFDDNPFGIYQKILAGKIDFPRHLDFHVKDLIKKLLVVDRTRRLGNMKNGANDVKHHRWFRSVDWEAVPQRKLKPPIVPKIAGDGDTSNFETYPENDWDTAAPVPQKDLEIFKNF

[12] = target: High affinity nerve growth factor receptor (Homo sapiens, UniProt P04629); type: functional;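 note: NTRK1 tested as one member of a kinome-wide profiling panel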
[13] = target: Protein kinase C theta type (Homo sapiens, UniProt Q04759); assay: Navigating the Kinome. Panel member name: PRKCQ; type: functional
[14] = target: Leukocyte tyrosine kinase receptor (Homo sapiens, UniProt P29376); assay: Navigating the Kinome. Panel member name: LTK; type: functional
[15] = target: Ribosomal protein S6 kinase alpha-3 (Homo sapiens, UniProt P51812); type: functional;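 note: measured within a kinome-wide profiling panel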
[16] = target: Dual specificity protein kinase CLK4 (Homo sapiens, UniProt Q9HAZ1); type: functional
[17] = target: Insulin-like growth factor 1 receptor (Homo sapiens, UniProt P08069); assay: Navigating the Kinome. Panel member name: IGF1R; type: functional
[18] = target: Dual specificity mitogen-activated protein kinase kinase 2 (Homo sapiens, UniProt P36507); assay: Navigating the Kinome. Panel member name: MAP2K2; type: functional
[19] = target: Fibroblast growth factor receptor 1 (Homo sapiens, UniProt P11362); type: functional
[20] = target: Mitogen-activated protein kinase 9 (Homo sapiens, UniProt P45984); type: functional;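 note: value from a kinome panel profiling assay, MAPK9 panel entry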
[21] = target: Platelet-activating factor acetylhydrolase (Mus musculus, UniProt Q60963); assay: Late stage assay provider results from the probe development effort to identify inhibitors of pPAFAH: fluorescence-based dose-response biochemical gel-based competitive Activity-Based Protein Profiling (ABPP) assay for SAR compounds.; type: functional

T3 sequence (P49327 whole entry): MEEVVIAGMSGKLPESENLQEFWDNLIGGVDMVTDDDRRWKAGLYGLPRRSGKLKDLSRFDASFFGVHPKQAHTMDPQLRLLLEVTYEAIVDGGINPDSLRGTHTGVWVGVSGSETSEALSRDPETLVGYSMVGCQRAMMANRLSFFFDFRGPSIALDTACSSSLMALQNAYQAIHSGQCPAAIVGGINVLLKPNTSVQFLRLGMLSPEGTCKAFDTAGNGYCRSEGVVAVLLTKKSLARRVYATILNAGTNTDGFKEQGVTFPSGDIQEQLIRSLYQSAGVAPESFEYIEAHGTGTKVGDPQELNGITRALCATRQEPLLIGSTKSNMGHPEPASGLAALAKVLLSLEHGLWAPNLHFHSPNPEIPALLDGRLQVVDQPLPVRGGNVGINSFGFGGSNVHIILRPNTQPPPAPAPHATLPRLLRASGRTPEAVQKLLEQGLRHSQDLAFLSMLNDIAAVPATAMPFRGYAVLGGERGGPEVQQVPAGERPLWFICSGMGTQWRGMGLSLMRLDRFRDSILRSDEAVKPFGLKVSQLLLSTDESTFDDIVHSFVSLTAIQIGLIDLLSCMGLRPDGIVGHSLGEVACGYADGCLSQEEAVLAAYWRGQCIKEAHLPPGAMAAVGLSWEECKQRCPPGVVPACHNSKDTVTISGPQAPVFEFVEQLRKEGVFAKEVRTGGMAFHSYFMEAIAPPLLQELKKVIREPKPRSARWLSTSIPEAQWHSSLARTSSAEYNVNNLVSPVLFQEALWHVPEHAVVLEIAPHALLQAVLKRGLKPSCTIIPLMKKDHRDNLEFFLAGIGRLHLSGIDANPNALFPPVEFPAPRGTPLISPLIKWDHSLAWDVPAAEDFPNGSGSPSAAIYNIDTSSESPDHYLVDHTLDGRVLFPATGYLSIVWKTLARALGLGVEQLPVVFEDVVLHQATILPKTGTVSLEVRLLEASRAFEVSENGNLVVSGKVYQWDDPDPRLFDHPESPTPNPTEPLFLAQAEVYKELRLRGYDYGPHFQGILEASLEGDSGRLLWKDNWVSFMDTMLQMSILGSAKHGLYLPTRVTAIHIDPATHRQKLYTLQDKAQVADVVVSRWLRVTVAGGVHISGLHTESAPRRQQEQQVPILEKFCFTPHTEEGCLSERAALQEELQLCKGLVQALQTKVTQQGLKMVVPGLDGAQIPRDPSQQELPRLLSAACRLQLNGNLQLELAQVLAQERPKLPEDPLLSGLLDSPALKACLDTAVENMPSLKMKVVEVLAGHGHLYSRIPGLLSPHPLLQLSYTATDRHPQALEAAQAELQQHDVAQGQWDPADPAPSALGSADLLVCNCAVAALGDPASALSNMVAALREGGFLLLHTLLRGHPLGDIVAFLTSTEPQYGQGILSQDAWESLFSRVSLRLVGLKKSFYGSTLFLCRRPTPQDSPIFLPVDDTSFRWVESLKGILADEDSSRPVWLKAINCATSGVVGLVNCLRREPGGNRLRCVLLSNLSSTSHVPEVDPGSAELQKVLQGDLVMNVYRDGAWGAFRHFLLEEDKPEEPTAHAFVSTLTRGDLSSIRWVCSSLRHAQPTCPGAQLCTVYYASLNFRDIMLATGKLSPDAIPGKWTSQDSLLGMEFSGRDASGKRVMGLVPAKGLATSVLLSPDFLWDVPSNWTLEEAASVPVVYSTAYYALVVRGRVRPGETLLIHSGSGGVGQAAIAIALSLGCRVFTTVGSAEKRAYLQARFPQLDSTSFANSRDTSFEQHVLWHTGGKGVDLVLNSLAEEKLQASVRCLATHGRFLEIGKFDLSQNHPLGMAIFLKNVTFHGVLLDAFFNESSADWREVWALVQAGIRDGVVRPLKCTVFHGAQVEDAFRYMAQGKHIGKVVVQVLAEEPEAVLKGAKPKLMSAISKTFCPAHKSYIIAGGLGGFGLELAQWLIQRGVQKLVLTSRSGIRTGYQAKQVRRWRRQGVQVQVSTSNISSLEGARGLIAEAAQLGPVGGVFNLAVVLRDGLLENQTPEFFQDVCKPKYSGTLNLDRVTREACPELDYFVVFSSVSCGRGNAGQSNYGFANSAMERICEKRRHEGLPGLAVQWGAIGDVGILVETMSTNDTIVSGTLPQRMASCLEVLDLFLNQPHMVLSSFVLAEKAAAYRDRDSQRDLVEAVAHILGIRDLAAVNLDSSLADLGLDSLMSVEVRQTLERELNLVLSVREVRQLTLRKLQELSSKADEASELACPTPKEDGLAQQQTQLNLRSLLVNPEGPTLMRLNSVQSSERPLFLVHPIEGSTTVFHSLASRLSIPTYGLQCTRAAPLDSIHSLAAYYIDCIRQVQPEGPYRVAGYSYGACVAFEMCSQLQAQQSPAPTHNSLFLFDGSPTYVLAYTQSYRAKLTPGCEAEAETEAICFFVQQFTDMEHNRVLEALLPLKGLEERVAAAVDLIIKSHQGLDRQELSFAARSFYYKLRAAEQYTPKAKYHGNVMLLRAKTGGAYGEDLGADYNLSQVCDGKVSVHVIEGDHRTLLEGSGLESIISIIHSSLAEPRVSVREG
Sequence of Mitogen-activated protein kinase 9 (P45984 whole entry): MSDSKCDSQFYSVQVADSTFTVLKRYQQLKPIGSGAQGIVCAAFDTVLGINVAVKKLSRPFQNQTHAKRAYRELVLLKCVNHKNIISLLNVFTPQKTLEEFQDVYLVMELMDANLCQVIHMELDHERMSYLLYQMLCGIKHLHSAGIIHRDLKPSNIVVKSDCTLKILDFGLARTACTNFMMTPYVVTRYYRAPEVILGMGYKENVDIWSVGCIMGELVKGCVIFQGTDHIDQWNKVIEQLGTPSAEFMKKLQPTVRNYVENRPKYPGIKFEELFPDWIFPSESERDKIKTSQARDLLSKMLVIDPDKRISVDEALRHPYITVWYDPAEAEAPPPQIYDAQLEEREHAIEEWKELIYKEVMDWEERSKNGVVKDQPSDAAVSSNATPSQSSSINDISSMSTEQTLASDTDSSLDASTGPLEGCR
Sequence of Protein kinase C theta type (Q04759 whole entry): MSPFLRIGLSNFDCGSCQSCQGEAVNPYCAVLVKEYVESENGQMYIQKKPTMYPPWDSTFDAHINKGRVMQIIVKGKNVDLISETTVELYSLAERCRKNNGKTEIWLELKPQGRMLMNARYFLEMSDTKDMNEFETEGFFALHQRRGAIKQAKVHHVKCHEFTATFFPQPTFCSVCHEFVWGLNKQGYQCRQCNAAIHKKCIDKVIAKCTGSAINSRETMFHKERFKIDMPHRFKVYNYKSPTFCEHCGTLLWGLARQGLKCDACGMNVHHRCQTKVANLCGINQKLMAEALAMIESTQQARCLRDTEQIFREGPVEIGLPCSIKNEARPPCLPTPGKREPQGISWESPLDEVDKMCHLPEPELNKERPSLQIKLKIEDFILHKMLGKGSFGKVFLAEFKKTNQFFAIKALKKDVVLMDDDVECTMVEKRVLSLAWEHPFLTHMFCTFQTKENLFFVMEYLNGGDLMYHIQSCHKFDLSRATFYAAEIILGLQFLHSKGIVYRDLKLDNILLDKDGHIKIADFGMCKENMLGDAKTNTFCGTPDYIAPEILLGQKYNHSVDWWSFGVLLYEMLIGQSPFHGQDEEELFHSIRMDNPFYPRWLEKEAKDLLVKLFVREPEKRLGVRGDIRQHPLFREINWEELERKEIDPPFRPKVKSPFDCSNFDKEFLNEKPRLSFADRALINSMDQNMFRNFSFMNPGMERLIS
Sequence of Insulin-like growth factor 1 receptor (P08069 31-736 limits assumed): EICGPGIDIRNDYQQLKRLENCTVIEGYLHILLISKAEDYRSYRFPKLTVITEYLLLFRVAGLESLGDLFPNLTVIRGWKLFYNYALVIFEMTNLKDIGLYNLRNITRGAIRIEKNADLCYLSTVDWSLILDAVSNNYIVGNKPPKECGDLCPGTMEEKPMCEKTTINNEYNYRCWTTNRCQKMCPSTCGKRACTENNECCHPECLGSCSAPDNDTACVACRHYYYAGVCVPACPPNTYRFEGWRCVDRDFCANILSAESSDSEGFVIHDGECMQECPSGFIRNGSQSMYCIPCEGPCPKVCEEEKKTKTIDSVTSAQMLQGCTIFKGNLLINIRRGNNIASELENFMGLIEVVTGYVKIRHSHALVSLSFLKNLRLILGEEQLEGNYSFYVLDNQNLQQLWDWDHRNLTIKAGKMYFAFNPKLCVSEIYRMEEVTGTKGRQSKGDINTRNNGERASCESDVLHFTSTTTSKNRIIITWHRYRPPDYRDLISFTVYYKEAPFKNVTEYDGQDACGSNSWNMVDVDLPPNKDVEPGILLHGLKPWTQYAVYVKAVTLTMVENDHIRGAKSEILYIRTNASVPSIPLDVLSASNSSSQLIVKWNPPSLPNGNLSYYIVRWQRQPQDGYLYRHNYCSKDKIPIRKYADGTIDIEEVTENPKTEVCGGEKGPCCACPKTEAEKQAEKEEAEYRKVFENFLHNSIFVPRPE
Sequence of Insulin-like growth factor 1 receptor (P08069 741-1367 limits assumed): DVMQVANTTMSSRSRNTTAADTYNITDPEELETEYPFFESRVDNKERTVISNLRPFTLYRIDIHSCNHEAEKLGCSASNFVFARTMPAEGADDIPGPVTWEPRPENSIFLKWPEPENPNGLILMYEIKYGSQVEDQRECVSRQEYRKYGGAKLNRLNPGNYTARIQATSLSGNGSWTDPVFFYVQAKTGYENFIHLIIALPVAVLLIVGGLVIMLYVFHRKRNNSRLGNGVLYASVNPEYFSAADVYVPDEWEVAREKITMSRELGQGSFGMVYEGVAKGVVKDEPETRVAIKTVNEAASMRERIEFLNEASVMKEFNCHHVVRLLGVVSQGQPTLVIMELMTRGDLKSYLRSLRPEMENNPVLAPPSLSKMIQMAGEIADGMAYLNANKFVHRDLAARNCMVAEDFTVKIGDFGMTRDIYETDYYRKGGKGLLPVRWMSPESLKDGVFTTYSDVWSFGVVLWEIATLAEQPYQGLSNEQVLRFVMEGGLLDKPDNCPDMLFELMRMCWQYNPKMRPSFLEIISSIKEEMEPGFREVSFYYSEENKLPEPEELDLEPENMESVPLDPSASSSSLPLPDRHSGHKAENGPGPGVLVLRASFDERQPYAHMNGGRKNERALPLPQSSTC

With `Nc1nccc(SCc2ccc(Cl)cc2Cl)n1` the IC50 (Interleukin-8 [1]) was 6.67 µM (active) and the IC50 (Interleukin-8 [2]) was > 79 µM (inactive).
For `O=Cc1s/c(=N\S(=O)(=O)c2ccccc2)n(CCCCl)c1Cl`, the EC50 [3] was 9.57 µM (active), the IC50 (CHO) was 1.03 µM (active) and the IC50 (Beta Lactamase) was 19.5 µM (inactive). For the same molecule, the EC50 (Protein RecA) was 34.9 µM (active), the EC50 [4] was > 120 µM (not active) and the EC50 [5] was 2.82 µM (active). The IC50 (Fatty acid synthase [6]) was 3.15 µM (active), the AC50 [7] was 4.19 µM (active) and the EC50 [8] was 1.39 µM (active). For the same molecule, the IC50 (Fatty acid synthase [9]) was 6.11 µM (active), the EC50 [10] was > 60 µM (not active) and the CC50 (HeLa) was > 3.67 µM (not active).
With `Nc1nccc2nc(-c3ccccc3)cn12` the Ki (Activated CDC42 kinase 1) was 15.8 µM (active), the Ki [11] was 79.4 µM (active) and the Ki [12] was 31.6 µM (active). For the same molecule, the Ki [13] was 50.1 µM (active), the Ki [14] was 50.1 µM (active) and the Ki [15] was 50.1 µM (active). For the same molecule, the Ki [16] was 79.4 µM (active), the Ki [17] was 39.8 µM (active) and the Ki [18] was 79.4 µM (active). The Ki [19] was 79.4 µM (active) and the Ki [20] was 100 µM (active).
In the case of `Cc1cc(N2CCN(C(=O)Oc3ccc(-c4ccccc4)cc3)CC2)c2ccccc2n1`, the IC50 [21] is reported as 0.091 µM (active).
